Article PMC7389528, “Anti-tubercular derivatives of rhein require activation by the monoglyceride lipase Rv0183” (The Cell Surface, 2020)
Values after ≈ are worked out from the molar mass of the structure shown. Values joined by “and” are separate entries in the source; they are usually repeats but may differ in a detail not shown here. Equal entries are not always repeated. “Also recorded” adds a separate entry of the source.

What was measured:
[1] = test system: Mtb clinical isolate 12611; assay: microbe, parasite or virus in culture; type: cell-based; details: Mycobacterium tuberculosis
[2] = test system: Mtb clinical isolate 14231; assay: microbe, parasite or virus in culture; type: cell-based; details: Mycobacterium tuberculosis
M. bovis BCG = type: cell-based
WT Rv0183 (BCG_0220) = target: T1, WT Rv0183 (BCG_0220) (Mycobacterium tuberculosis, UniProt O07427); type: biochemical; details: 10 μM WT Rv0183, 5 μg compound, 37 °C, 1 h
T1 construct: poly-histidine (pET28a vector-encoded) (N); made in house; host or cells: E. coli SHuffle T7 (K12), pET28a

Rv0183-VAAQD137D = Rv0183-VAAQD137D (Mycobacterium tuberculosis, UniProt O07427, DEL137-140); type: biochemical, M. bovis BCG
Rv0183-S172P = Rv0183-S172P (Mycobacterium tuberculosis, UniProt O07427, S172P); type: biochemical, M. bovis BCG
[3] = test system: M. bovis BCG HTB-04 mutant 2 (BCG_0220-S172P); type: cell-based

SMILES: O=C(OCCCCCl)c1cc(O)c2c(c1)C(=O)c1cccc(O)c1C2=O [HTB-03]
- MIC [1]: 2.64 µM (≈ 0.989 µg/mL)
- MIC [2]: 2.4 µM (≈ 0.899 µg/mL)
- frequency of resistance (M. bovis BCG): 83 × 10^-8 and 100 × 10^-8
- enzyme activity on compound (TLC) (WT Rv0183 (BCG_0220)): converted to rhein
- enzyme activity on compound (TLC) (Rv0183-VAAQD137D): minimal
- enzyme activity on compound (TLC) (Rv0183-S172P): no activity

SMILES: CC(=O)Oc1cccc2c1C(=O)c1c(OC(C)=O)cc(C(=O)OCCCCCl)cc1C2=O [HTB-04]
- MIC [1]: 3.66 µM (≈ 1.68 µg/mL)
- MIC [2]: 2.04 µM (≈ 0.936 µg/mL)
- frequency of resistance (M. bovis BCG): 85 × 10^-8
- IC50 [3]: 6.23 µM and 3.51 µM
- enzyme activity on compound (TLC) (WT Rv0183 (BCG_0220)): partially hydrolyzed to rhein; also recorded: inconclusive

SMILES: NNC(=O)c1ccncc1 [INH, isoniazid, reference compound]
- MIC [1]: 142 µM (≈ 19.5 µg/mL)
- MIC [2]: > 292 µM

SMILES: O=C(O)c1cc(O)c2c(c1)C(=O)c1cccc(O)c1C2=O [Rhein, rhein]
- enzyme activity on compound (TLC) (WT Rv0183 (BCG_0220)): no apparent activity
- enzyme activity on compound (TLC) (Rv0183-VAAQD137D): no apparent activity
- enzyme activity on compound (TLC) (Rv0183-S172P): no apparent activity
